Data on 18 molecules can be found in US20090304692A1, “TRIAZINE COMPOUNDS AS PI3 KINASE AND MTOR INHIBITORS” (Wyeth, priority 2008, published 2009).

One experiment concerns the target Human mTOR (FLAG-TOR) (Homo sapiens, UniProt P42345). As to the kind of experiment: mTOR kinase assay (DELFIA format, purified enzyme). As to conditions: read-out: IC50 mTOR. It is filed as biochemical.
The target in a further experiment is PI3K-γ (Homo sapiens, UniProt P48736). The experiment can be described thus: PI3K-gamma fluorescence polarization assay. To be noted: read-out: IC50 PI3Kγ. Background: Fluorescence polarisation rises when a labelled molecule tumbles more slowly, as on binding a larger partner.
Chain of PI3K-γ (P48736 whole entry, species assumed): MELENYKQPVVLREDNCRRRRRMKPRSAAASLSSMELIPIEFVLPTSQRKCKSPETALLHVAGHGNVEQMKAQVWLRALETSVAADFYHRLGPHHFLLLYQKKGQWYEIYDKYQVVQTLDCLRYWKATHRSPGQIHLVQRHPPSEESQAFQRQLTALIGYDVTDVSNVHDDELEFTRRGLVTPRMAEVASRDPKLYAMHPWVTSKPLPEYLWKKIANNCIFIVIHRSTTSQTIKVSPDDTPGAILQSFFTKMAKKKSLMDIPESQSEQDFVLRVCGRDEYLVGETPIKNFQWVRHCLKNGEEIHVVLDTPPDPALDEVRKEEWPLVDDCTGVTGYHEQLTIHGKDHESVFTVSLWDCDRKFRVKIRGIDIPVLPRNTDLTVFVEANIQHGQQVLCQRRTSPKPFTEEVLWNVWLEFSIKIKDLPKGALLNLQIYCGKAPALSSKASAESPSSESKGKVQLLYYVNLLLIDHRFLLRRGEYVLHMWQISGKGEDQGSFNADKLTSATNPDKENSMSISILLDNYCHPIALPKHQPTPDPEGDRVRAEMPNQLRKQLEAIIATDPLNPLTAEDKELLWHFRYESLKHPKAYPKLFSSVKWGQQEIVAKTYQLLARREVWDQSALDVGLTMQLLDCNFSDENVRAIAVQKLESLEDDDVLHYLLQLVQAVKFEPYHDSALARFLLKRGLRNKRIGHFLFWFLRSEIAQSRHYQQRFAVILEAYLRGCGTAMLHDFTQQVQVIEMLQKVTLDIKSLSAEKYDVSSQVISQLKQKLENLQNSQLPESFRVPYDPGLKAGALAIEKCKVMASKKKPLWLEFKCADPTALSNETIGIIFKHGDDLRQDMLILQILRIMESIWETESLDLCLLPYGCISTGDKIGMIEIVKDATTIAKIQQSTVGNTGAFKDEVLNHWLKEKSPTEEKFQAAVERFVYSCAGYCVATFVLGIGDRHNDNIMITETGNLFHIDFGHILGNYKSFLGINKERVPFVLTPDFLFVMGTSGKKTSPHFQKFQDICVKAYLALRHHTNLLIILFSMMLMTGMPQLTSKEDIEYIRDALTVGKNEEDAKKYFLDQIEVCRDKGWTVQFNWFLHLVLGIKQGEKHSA
A further experiment concerns the target PI3K-α (Homo sapiens, UniProt P42336). As to the kind of experiment: PI3K-alpha fluorescence polarization assay. To be noted: read-out: IC50 PI3Kα.

Chain of Human mTOR (FLAG-TOR) (P42345 1360-2549 limits assumed): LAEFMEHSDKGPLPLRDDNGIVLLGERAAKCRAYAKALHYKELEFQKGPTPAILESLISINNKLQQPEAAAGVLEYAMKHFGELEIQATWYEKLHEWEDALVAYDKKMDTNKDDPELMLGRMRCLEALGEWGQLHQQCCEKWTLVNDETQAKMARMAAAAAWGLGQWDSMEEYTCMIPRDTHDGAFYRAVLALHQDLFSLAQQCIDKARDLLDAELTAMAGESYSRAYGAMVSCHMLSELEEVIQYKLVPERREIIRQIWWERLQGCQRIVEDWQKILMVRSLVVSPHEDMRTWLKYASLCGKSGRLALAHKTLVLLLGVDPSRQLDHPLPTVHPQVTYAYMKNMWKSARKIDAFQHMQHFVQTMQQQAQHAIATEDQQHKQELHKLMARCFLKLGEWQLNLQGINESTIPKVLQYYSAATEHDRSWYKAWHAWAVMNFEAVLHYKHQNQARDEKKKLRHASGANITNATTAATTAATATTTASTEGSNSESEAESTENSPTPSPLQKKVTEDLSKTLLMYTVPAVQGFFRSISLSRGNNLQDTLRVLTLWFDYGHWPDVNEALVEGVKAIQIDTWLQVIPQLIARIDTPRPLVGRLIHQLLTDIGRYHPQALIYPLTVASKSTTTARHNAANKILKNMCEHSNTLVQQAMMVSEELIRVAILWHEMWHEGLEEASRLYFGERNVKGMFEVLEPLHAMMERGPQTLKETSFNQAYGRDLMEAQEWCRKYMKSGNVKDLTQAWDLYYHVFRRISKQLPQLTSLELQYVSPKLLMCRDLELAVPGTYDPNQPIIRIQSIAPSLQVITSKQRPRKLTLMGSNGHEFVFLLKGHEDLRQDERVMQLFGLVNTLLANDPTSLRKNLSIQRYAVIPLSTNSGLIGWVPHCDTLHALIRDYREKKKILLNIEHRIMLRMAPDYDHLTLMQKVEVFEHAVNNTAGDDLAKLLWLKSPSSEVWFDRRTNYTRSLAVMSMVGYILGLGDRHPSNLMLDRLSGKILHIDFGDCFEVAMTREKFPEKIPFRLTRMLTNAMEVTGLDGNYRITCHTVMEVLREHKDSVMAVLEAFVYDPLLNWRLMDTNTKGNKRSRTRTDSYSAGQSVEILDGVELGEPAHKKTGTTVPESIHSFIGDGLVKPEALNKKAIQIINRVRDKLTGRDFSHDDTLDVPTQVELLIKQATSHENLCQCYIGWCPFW
Chain of PI3K-α (P42336 whole entry, species assumed): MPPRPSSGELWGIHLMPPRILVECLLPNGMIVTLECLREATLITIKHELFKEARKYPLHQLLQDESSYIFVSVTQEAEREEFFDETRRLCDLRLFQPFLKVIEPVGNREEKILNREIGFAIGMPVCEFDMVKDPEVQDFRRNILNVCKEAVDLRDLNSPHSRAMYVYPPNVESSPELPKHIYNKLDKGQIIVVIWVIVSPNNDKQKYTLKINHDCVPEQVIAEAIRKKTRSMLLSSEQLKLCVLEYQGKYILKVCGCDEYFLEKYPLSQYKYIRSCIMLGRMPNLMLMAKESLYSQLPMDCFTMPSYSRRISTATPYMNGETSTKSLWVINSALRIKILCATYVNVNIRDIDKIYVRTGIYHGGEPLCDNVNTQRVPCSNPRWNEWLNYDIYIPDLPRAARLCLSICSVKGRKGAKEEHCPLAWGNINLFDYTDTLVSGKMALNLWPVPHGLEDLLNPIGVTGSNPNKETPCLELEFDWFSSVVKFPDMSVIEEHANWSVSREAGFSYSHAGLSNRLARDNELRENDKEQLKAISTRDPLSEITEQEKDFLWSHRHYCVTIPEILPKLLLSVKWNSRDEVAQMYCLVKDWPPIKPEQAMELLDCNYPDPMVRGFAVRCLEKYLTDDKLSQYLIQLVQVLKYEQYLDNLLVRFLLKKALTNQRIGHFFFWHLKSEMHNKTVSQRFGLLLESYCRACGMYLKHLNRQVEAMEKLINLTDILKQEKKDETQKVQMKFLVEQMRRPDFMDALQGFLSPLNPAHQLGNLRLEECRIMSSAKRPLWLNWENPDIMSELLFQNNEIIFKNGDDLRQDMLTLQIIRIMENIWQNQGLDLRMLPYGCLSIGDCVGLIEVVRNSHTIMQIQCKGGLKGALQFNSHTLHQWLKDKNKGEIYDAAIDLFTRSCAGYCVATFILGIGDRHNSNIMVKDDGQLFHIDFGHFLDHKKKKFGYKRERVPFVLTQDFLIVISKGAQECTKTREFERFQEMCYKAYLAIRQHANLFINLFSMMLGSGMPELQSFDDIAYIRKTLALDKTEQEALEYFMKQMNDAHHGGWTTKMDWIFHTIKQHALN
Chain of PI3K-α (P27986 whole entry partner, species assumed): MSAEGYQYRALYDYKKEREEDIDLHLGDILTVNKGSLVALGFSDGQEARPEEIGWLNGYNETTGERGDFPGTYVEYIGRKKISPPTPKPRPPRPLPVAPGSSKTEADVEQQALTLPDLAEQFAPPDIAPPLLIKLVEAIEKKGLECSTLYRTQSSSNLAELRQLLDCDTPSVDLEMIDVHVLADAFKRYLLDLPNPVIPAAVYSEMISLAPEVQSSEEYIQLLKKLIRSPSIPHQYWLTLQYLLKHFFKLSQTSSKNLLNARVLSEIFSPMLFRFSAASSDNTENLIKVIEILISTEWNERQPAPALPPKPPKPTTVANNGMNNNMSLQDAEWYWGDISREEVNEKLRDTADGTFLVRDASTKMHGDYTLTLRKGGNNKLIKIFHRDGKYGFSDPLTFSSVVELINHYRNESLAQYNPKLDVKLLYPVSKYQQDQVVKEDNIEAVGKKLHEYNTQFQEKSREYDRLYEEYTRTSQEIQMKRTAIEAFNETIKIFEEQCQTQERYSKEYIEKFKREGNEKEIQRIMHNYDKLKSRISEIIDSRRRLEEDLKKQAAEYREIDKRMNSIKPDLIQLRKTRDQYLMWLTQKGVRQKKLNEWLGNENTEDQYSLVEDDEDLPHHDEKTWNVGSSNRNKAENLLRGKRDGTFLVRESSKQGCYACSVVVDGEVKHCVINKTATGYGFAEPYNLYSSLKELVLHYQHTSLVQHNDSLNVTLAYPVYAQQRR

In the case of `Cc1ccc(-c2nc(-c3ccc(NC(=O)Nc4cccc(C(=O)N5CCN(C)CC5)c4)cc3)nc(N3CCOCC3)n2)cc1` [Example 576, 1-{4-[4-(4-methylphenyl)-6-morpholin-4-yl-1,3,5-triazin-2-yl]phenyl}-3-{3-[(4-methylpiperazin-1-yl)carbonyl]phenyl}urea], the IC50 was 140 nM on Human mTOR (FLAG-TOR), 2080 nM on PI3K-γ and 761 nM on PI3K-α.

Turning to `COC(=O)c1cccc(NC(=O)Nc2ccc(-c3nc(-c4ccc(C)cc4)nc(N4CCOCC4)n3)cc2)c1` [Example 578, methyl 3-[({4-[4-(4-methylphenyl)-6-morpholin-4-yl-1,3,5-triazin-2-yl]phenyl}carbamoyl)amino]benzoate], the IC50 came out at 2100 nM at Human mTOR (FLAG-TOR), 2510 nM on PI3K-γ and 2410 nM at PI3K-α.

In the case of `Cc1ccc(-c2nc(-c3ccc(NC(=O)Nc4cccc(C(=O)N(C)CCN(C)C)c4)cc3)nc(N3CCOCC3)n2)cc1` [Example 580, N-[2-(dimethylamino)ethyl]-N-methyl-3-[({4-[4-(4-methylphenyl)-6-morpholin-4-yl-1,3,5-triazin-2-yl]phenyl}carbamoyl)amino]benzamide], the IC50 came to 100 nM at Human mTOR (FLAG-TOR), 1320 nM at PI3K-γ and 465 nM at PI3K-α.

Consider `CCc1nc(-c2ccc(NC(=O)Nc3cccc(C(=O)OC)c3)cc2)nc(N2CCOCC2)n1` [Example 581, methyl 3-({[4-(4-ethyl-6-morpholin-4-yl-1,3,5-triazin-2-yl)phenyl]carbamoyl}amino)benzoate], for which the IC50 at Human mTOR (FLAG-TOR) amounted to 37 nM; on PI3K-γ, 461 nM; on PI3K-α, 114 nM.

Regarding `COC(=O)c1cccc(NC(=O)Nc2ccc(-c3nc(-c4cccs4)nc(N4CCOCC4)n3)cc2)c1` [Example 582, methyl 3-({[4-(4-morpholin-4-yl-6-thiophen-2-yl-1,3,5-triazin-2-yl)phenyl]carbamoyl}amino)benzoate], the IC50 at Human mTOR (FLAG-TOR) turned out to be 230 nM; at PI3K-γ, 1090 nM; at PI3K-α it was 513 nM.

Regarding `Cc1ccc(-c2nc(-c3ccc(NC(=O)Nc4cccc(C(=O)NCCN(C)C)c4)cc3)nc(N3CCOCC3)n2)cc1` [Example 583, N-[2-(dimethylamino)ethyl]-3-[({4-[4-(4-methylphenyl)-6-morpholin-4-yl-1,3,5-triazin-2-yl]phenyl}carbamoyl)amino]benzamide], the IC50 is 48 nM on Human mTOR (FLAG-TOR), 718 nM at PI3K-γ and 123 nM at PI3K-α.

Turning to `CCc1nc(-c2ccc(NC(=O)Nc3cccc(C(=O)O)c3)cc2)nc(N2CCOCC2)n1` [Example 585, 3-({[4-(4-ethyl-6-morpholin-4-yl-1,3,5-triazin-2-yl)phenyl]carbamoyl}amino)benzoic acid], the IC50 at Human mTOR (FLAG-TOR) amounted to 12 nM; on PI3K-γ, 131 nM; at PI3K-α, 65 nM.

Regarding `COC(=O)c1cccc(NC(=O)Nc2ccc(-c3nc(-c4ccccc4)nc(N4CCOCC4)n3)cc2)c1` [Example 586, methyl 3-({[4-(4-morpholin-4-yl-6-phenyl-1,3,5-triazin-2-yl)phenyl]carbamoyl}amino)benzoate], the values for the IC50 at Human mTOR (FLAG-TOR), on PI3K-γ and on PI3K-α were 365 nM, 1250 nM and 947 nM, respectively.

`CCc1nc(-c2ccc(NC(=O)Nc3cccc(C(=O)N4CCN(c5ccccn5)CC4)c3)cc2)nc(N2CCOCC2)n1` [Example 587, 1-[4-(4-ethyl-6-morpholin-4-yl-1,3,5-triazin-2-yl)phenyl]-3-{3-[(4-pyridin-2-ylpiperazin-1-yl)carbonyl]phenyl}urea]: the IC50 on Human mTOR (FLAG-TOR) was 100 nM; on PI3K-γ it was 675 nM; at PI3K-α, 350 nM.

For `CCc1nc(-c2ccc(NC(=O)Nc3cccc(C(=O)N(C)CCN(C)C)c3)cc2)nc(N2CCOCC2)n1` [Example 588, N-[2-(dimethylamino)ethyl]-3-({[4-(4-ethyl-6-morpholin-4-yl-1,3,5-triazin-2-yl)phenyl]carbamoyl}amino)-N-methylbenzamide], the IC50 came to 54 nM on Human mTOR (FLAG-TOR), 2250 nM at PI3K-γ and 524 nM at PI3K-α.

Regarding `CCc1nc(-c2ccc(NC(=O)Nc3cccc(C(=O)N4CCN(C)CC4)c3)cc2)nc(N2CCOCC2)n1` [Example 589, 1-[4-(4-ethyl-6-morpholin-4-yl-1,3,5-triazin-2-yl)phenyl]-3-{3-[(4-methylpiperazin-1-yl)carbonyl]phenyl}urea], the IC50 came to 57 nM at Human mTOR (FLAG-TOR), 1620 nM at PI3K-γ and 718 nM on PI3K-α.

`O=C(Nc1ccc(-c2nc(-c3ccccc3)nc(N3CCOCC3)n2)cc1)Nc1cccc(C(=O)O)c1` [Example 590, 3-({[4-(4-morpholin-4-yl-6-phenyl-1,3,5-triazin-2-yl)phenyl]carbamoyl}amino)benzoic acid]: the IC50 worked out at 49 nM on Human mTOR (FLAG-TOR), 404 nM on PI3K-γ and 343 nM on PI3K-α.

Consider `COC(=O)c1ccc(NC(=O)Nc2ccc(-c3nc(N4CCCCC4)nc(N4CCOCC4)n3)cc2)cc1` [Example 591, methyl 4-({[4-(4-morpholin-4-yl-6-piperidin-1-yl-1,3,5-triazin-2-yl)phenyl]carbamoyl}amino)benzoate], for which the IC50 at Human mTOR (FLAG-TOR) was determined as 33 nM; at PI3K-γ, 726 nM; on PI3K-α, 250 nM.

`COC(=O)c1ccc(NC(=O)Nc2ccc(-c3nc(N4CCCC4)nc(N4CCOCC4)n3)cc2)cc1` [Example 594, methyl 4-({[4-(4-morpholin-4-yl-6-pyrrolidin-1-yl-1,3,5-triazin-2-yl)phenyl]carbamoyl}amino)benzoate]: the IC50 is 22 nM on Human mTOR (FLAG-TOR), 744 nM at PI3K-γ and 350 nM at PI3K-α.

With `O=C(Nc1ccc(C(=O)O)cc1)Nc1ccc(-c2nc(N3CCCC3)nc(N3CCOCC3)n2)cc1` [Example 599, 4-({[4-(4-morpholin-4-yl-6-pyrrolidin-1-yl-1,3,5-triazin-2-yl)phenyl]carbamoyl}amino)benzoic acid], the IC50 on Human mTOR (FLAG-TOR) worked out at 13 nM; on PI3K-γ it was 190 nM; at PI3K-α, 64.5 nM.

Turning to `O=C(Nc1ccncc1)Nc1ccc(-c2nc(N3CCCC3)nc(N3CCOCC3)n2)cc1` [Example 600, 1-[4-(4-morpholin-4-yl-6-pyrrolidin-1-yl-1,3,5-triazin-2-yl)phenyl]-3-pyridin-4-ylurea], the figures for the IC50 at Human mTOR (FLAG-TOR), on PI3K-γ and on PI3K-α were 8 nM, 162 nM and 45.5 nM, respectively.

As for `C[C@H]1COCCN1c1nc(-c2ccc(NC(=O)Nc3ccc(C(=O)O)cc3)cc2)nc(N2CCOCC2)n1` [Example 619, 4-{[(4-{4-[(3S)-3-methylmorpholin-4-yl]-6-morpholin-4-yl-1,3,5-triazin-2-yl}phenyl)carbamoyl]amino}benzoic acid], the IC50 on Human mTOR (FLAG-TOR) was 1 nM; on PI3K-γ, 137 nM; on PI3K-α it was 33 nM.

`C[C@@H]1COCCN1c1nc(-c2ccc(NC(=O)Nc3ccc(C(=O)O)cc3)cc2)nc(N2CCOC[C@@H]2C)n1` [Example 626, 4-{[(4-{4-[(3R)-3-methylmorpholin-4-yl]-6-[(3S)-3-methylmorpholin-4-yl]-1,3,5-triazin-2-yl}phenyl)carbamoyl]amino}benzoic acid]: the results for the IC50 at Human mTOR (FLAG-TOR), on PI3K-γ and at PI3K-α were 1 nM, 208 nM and 59 nM, respectively.

Broadly, the IC50 is the point on the concentration scale where inhibition reaches its midpoint.
